Experiments:
Type in all cases: physicochemical
[1] = Dynamic vapor sorption (DVS) experiment; details: for Adsorption weight gain (80% RH) / Adsorption weight gain (95% RH): DVS; for Hygroscopicity: class per Chinese Pharmacopoeia 2010 guidance (25±0.2°C, 80% relative humidity)
[2] = Stability test in pure water and buffer solution (suspension, XRPD); details: 25°C, stirred 24 h, solid by XRPD
Description: The suspensions were stirred at 25°C for 24 h, and filtered to obtain the solids. Samples were taken for XRPD measurement. […]

[3] = Influencing factor stability: high-humidity test; details: Temperature 25°C, relative humidity 92.5±5%; for Purity: HPLC, starting purity: Crystal form VI 99.32%, Amorphous form 98.80%, Crystal form XIII 99.01%; for Crystal form: XRPD
Description: (§1) The crystal form results under different conditions were identified by XRPD analysis, and the purity results under different conditions were identified by HPLC analysis.
(§2) The above samples were then taken on days 5, 10, 15, and 30, respectively. Their crystal forms were tested by adopting X-ray powder diffraction (XRPD), and the sample purities were tested by adopting HPLC. […]

[4] = Influencing factor stability: high-temperature test; details: Temperature 60°C; for Purity: HPLC, starting purity: Crystal form VI 99.32%, Amorphous form 98.80%, Crystal form XIII 99.01%; for Crystal form: XRPD
Description: as §1, §2

[5] = Influencing factor stability: light exposure test; details: Visible light 4500 Lux ± 500 Lux; for Crystal form: ultraviolet light 1.7 W*h/m^2 (25°C, RH 60%±5%), XRPD; for Purity: HPLC, starting purity: Crystal form VI 99.32%, Amorphous form 98.80%, Crystal form XIII 99.01%
Description: as §1, §2

[6] = Morphological comparison under polarizing light microscope; details: for dispersibility and flowability / agglomeration and caking: judged from polarizing light microscope images; for crystal morphology: polarizing light microscope
[7] = ultraviolet light 1.7 W*h/m^2, 5 days
[8] = ultraviolet light 1.7 W*h/m^2, 10 days
[9] = ultraviolet light 1.7 W*h/m^2, 15 days
[10] = ultraviolet light 1.7 W*h/m^2, 30 days

| Adsorption weight gain (80% RH) [1] [%] | Adsorption weight gain (95% RH) [1] [%] | Suspension result ([2]; Pure water) | Suspension result ([2]; pH 4.5 buffer solution) | Suspension result ([2]; pH 6.8 buffer solution) | Purity ([3]; 5 days) [%] | Crystal form ([3]; 5 days) | Purity ([3]; 10 days) [%] | Crystal form ([3]; 10 days) | Purity ([3]; 15 days) [%] | Crystal form ([3]; 15 days) | Purity ([3]; 30 days) [%] | Crystal form ([3]; 30 days) | Purity ([4]; 5 days) [%] | Crystal form ([4]; 5 days) | Purity ([4]; 10 days) [%] | Crystal form ([4]; 10 days) | Purity ([4]; 15 days) [%] | Crystal form ([4]; 15 days) | SMILES | Hygroscopicity [1] | other results |
| --- | --- | --- | --- | --- | --- | --- | --- | --- | --- | --- | --- | --- | --- | --- | --- | --- | --- | --- | --- | --- | --- |
| 4.55 | 6.76 | Transform into other crystal forms | Transform into other crystal forms | Transform into other crystal forms | 98.72 | Amorphous form | 98.50 | Amorphous form | 98.38 | Amorphous form | 98.21 | Amorphous form | 98.61 | Amorphous form | 98.44 | Amorphous form | 98.39 | Amorphous form | C=CC(=O)Nc1cc(Nc2nc(-c3ccnc(N4CCn5c(cc6c5CC(C)(C)C6)C4=O)c3CO)cn(C)c2=O)ccc1N1CCN(C2CCOCC2)C[C@@H]1C [Amorphous form, (S)-N-(5-((6-(2-(7,7-dimethyl-1-oxo-1,3,4,6,7,8-hexahydro-2H-cyclopenta[4,5]pyrrolo[1,2-a]pyrazin-2-yl)-3-(hydroxymethyl)pyridin-4-yl)-4-methyl-3-oxo-3,4-dihydropyrazin-2-yl)amino)-2-(2-methyl-4-(tetrahydro-2H-pyran-4-yl)piperazin-1-yl)phenyl)acrylamide] | Hygroscopic (hygroscopic weight gain is less than 15% but not less than 2%) | Adsorption weight gain (80% RH) ([1]; listed as amorphous form): about 4.55%; Adsorption weight gain (95% RH) ([1]; listed as amorphous form): about 6.76%; Hygroscopicity ([1]; listed as amorphous form): hygroscopic; Purity ([4]; 30 days): 97.88%; Crystal form ([4]; 30 days): Amorphous form; Crystal form ([5]; 5 days): Amorphous form; Crystal form ([5]; 10 days): Amorphous form; Crystal form ([5]; 15 days): Amorphous form; Crystal form ([5]; 30 days): Amorphous form; Purity [5, 7]: 98.46%; Purity [5, 8]: 97.98%; Purity [5, 9]: 97.29%; Purity [5, 10]: 96.55%; dispersibility and flowability / agglomeration and caking [6]: significant agglomeration and caking; crystal morphology [6]: irregular glassy state |
| – | – | – | Transform into other crystal forms | Transform into other crystal forms | – | – | – | – | – | – | – | – | – | – | – | – | – | – | C=CC(=O)Nc1cc(Nc2nc(-c3ccnc(N4CCn5c(cc6c5CC(C)(C)C6)C4=O)c3CO)cn(C)c2=O)ccc1N1CCN(C2CCOCC2)C[C@@H]1C [Crystal form V, (S)-N-(5-((6-(2-(7,7-dimethyl-1-oxo-1,3,4,6,7,8-hexahydro-2H-cyclopenta[4,5]pyrrolo[1,2-a]pyrazin-2-yl)-3-(hydroxymethyl)pyridin-4-yl)-4-methyl-3-oxo-3,4-dihydropyrazin-2-yl)amino)-2-(2-methyl-4-(tetrahydro-2H-pyran-4-yl)piperazin-1-yl)phenyl)acrylamide] | – | – |
| 6.53 | 14.45 | Transform into other crystal forms | Transform into other crystal forms | Transform into other crystal forms | 98.92 | Crystal form XIII | 98.86 | Crystal form XIII | 98.81 | Crystal form XIII | 98.77 | Crystal form XIII | 98.79 | Transform into other crystal forms | 98.54 | Transform into other crystal forms | 98.20 | Transform into other crystal forms | C=CC(=O)Nc1cc(Nc2nc(-c3ccnc(N4CCn5c(cc6c5CC(C)(C)C6)C4=O)c3CO)cn(C)c2=O)ccc1N1CCN(C2CCOCC2)C[C@@H]1C [Crystal form XIII, (S)-N-(5-((6-(2-(7,7-dimethyl-1-oxo-1,3,4,6,7,8-hexahydro-2H-cyclopenta[4,5]pyrrolo[1,2-a]pyrazin-2-yl)-3-(hydroxymethyl)pyridin-4-yl)-4-methyl-3-oxo-3,4-dihydropyrazin-2-yl)amino)-2-(2-methyl-4-(tetrahydro-2H-pyran-4-yl)piperazin-1-yl)phenyl)acrylamide] | Hygroscopic (hygroscopic weight gain is less than 15% but not less than 2%) | Adsorption weight gain (80% RH) ([1]; listed as crystal form XIII): about 6.53%; Adsorption weight gain (95% RH) ([1]; listed as crystal form XIII): about 14.45%; Hygroscopicity ([1]; listed as crystal form XIII): hygroscopic; Purity ([4]; 30 days): 97.85%; Crystal form ([4]; 30 days): Transform into other crystal forms; Crystal form ([5]; 5 days): Crystal form XIII; Crystal form ([5]; 10 days): Crystal form XIII; Crystal form ([5]; 15 days): Crystal form XIII; Crystal form ([5]; 30 days): Crystal form XIII; Purity [5, 7]: 98.65%; Purity [5, 8]: 98.32%; Purity [5, 9]: 97.76%; Purity [5, 10]: 97.15%; dispersibility and flowability / agglomeration and caking [6]: relatively poor flowability; crystal morphology [6]: fine |
